In the assay the target is Ba/F3 (EGFR^L858R/T790M/C797S) cells (Homo sapiens, UniProt P00533, T790M/C797S/L858R, cells depend on it). Kind of assay: Antiproliferative activity on Ba/F3 (EGFR L858R/T790M/C797S) cells (CTG). In kind it is cell-based. The settings on record: 72h incubation, CTG luminescence, read-out: IC50 (nM), antiproliferative activity. The method, then: 30 nL of the compound dilution was added to a 384-well plate by Echo (Labcyte, Echo550).
The percent inhibition rate (% inhibition) was calculated by the following formula
[formula] • LUMcmpd: Luminescence value of assay compound. • LUMpositive: Average LUM value of positive drug with a concentration of 10 μM. • LUMvehicle: Average LUM value of negative control group without drug treatment.
The nonlinear regression curve (dose response-variable slope) between the value of inhibition rate (%) and the logarithm of compound concentration was fitted with graphpad prism 8.0, the effect dose curve of compound was drawn, and the IC50 value was calculated.
Y=Bottom+(Top−Bottom)/(1+10^((Log IC50−X)*HillSlope)) • X-axis: logarithm of compound concentration; Y axis: inhibition rate (% inhibition).

Ba/F3 (EGFR^L858R/T790M/C797S) cells, sequence (P00533 whole entry T790M/C797S/L858R): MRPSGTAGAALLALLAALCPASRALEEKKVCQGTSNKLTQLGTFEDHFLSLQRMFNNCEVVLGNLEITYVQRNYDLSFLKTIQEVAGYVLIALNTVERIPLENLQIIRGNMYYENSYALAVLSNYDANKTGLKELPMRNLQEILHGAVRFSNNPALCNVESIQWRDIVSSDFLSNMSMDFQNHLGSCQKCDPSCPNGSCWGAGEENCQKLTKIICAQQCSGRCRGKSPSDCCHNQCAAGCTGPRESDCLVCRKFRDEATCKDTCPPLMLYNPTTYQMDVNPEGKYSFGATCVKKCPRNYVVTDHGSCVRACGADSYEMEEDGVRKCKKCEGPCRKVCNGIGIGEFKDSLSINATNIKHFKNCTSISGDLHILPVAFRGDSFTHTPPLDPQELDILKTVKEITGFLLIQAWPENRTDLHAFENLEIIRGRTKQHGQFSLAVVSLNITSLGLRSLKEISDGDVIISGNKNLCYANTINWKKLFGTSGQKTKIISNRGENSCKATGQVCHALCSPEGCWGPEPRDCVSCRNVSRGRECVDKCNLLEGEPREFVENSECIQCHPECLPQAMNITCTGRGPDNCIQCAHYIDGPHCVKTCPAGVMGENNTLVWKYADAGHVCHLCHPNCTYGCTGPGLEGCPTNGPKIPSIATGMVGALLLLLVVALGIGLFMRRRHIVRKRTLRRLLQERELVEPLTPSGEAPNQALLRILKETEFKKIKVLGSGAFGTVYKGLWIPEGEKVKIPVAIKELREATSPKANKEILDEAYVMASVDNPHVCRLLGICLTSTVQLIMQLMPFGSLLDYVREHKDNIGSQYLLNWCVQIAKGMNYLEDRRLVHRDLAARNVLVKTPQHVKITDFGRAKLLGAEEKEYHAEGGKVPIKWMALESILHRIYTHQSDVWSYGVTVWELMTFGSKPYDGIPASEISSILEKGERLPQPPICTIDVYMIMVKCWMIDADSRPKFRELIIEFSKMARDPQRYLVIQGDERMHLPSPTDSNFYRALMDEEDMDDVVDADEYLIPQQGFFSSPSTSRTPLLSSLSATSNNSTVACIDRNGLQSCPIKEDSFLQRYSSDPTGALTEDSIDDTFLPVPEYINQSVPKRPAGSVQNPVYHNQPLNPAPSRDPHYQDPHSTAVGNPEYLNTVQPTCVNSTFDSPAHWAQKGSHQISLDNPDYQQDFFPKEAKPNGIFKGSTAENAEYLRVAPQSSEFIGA

For the compound `COc1cc(N2CCC(N3CCN(CCCC#Cc4cccc5c4CN(C4CCC(=O)NC4=O)C5=O)CC3)CC2)c(NC(=O)/C=C/c2cccs2)cc1Nc1ncc(Cl)c(Nc2ccccc2P(C)(C)=O)n1` (stereo not shown) [Compound D583, (E)-N-(5-((5-chloro-4-((2-(dimethylphosphoryl)phenyl)amino)pyrimidin-2-yl)amino)-2-(4-(4-(5-(2-(2,6-dioxopiperidin-3-yl)-1-oxoisoindolin-4-yl)pent-4-yn-1-yl)piperazin-1-yl)piperidin-1-yl)-4-methoxyphenyl)-3-(thiophen-2-yl)acrylamide], the GI50 is 45.6 nM.

`COc1cc(N2CCC(N3CCN(CCCC#Cc4cccc5c4CN(C4CCC(=O)NC4=O)C5=O)CC3)CC2)c(NC(=O)/C=C/CN2CCCCC2)cc1Nc1ncc(Cl)c(Nc2ccccc2P(C)(C)=O)n1` (stereo not shown) [Compound D584, (E)-N-(5-((5-chloro-4-((2-(dimethylphosphoryl)phenyl)amino)pyrimidin-2-yl)amino)-2-(4-(4-(5-(2-(2,6-dioxopiperidin-3-yl)-1-oxoisoindolin-4-yl)pent-4-yn-1-yl)piperazin-1-yl)piperidin-1-yl)-4-methoxyphenyl)-4-(piperidin-1-yl)but-2-enamide]: the GI50 was 216 nM.

As to `COc1cc(N2CCC(N3CCN(CCCC#Cc4cccc5c4CN(C4CCC(=O)NC4=O)C5=O)CC3)CC2)c(NC(=O)/C=C/C(F)(F)F)cc1Nc1ncc(Cl)c(Nc2ccccc2P(C)(C)=O)n1` (stereo not shown) [Compound D596, N-(5-((5-chloro-4-((2-(dimethylphosphoryl)phenyl)amino)pyrimidin-2-yl)amino)-2-(4-(4-(5-(2-(2,6-dioxopiperidin-3-yl)-1-oxoisoindolin-4-yl)pent-4-yn-1-yl)piperazin-1-yl)piperidin-1-yl)-4-methoxyphenyl)-4,4,4-trifluorobut-2-enamide], the GI50 is 31.7 nM.

Consider `C=C(Cl)C(=O)Nc1cc(Nc2ncc(Cl)c(Nc3ccccc3P(C)(C)=O)n2)c(OC)cc1N1CCC(N2CCN(CCCC#Cc3cccc4c3CN(C3CCC(=O)NC3=O)C4=O)CC2)CC1` (stereo not shown) [Compound D597, 2-chloro-N-(5-((5-chloro-4-((2-(dimethylphosphoryl)phenyl)amino)pyrimidin-2-yl)amino)-2-(4-(4-(5-(2-(2,6-dioxopiperidin-3-yl)-1-oxoisoindolin-4-yl)pent-4-yn-1-yl)piperazin-1-yl)piperidin-1-yl)-4-methoxyphenyl)acrylamide], for which the GI50 came to 460 nM.

`C=CC(=O)Nc1cc(Nc2ncc(Cl)c(Nc3ccccc3P(C)(C)=O)n2)c(OC)cc1N1CCC(N2CCN(CCCCC#Cc3ccc4c(c3)CN(C3CCC(=O)NC3=O)C4=O)CC2)CC1` (stereo not shown) [Compound D601, N-(5-((5-chloro-4-((2-(dimethylphosphoryl)phenyl)amino)pyrimidin-2-yl)amino)-2-(4-(4-(6-(2-(2,6-dioxopiperidin-3-yl)-1-oxoisoindolin-5-yl)hex-5-yn-1-yl)piperazin-1-yl)piperidin-1-yl)-4-methoxyphenyl)acrylamide]: the GI50 stood at 144 nM.

For `CC#CC(=O)Nc1cc(Nc2ncc(Cl)c(Nc3ccccc3P(C)(C)=O)n2)c(OC)cc1N1CCC(N2CCN(CCCCC#Cc3ccc4c(c3)CN(C3CCC(=O)NC3=O)C4=O)CC2)CC1` (stereo not shown) [Compound D602, N-(5-((5-chloro-4-((2-(dimethylphosphoryl)phenyl)amino)pyrimidin-2-yl)amino)-2-(4-(4-(6-(2-(2,6-dioxopiperidin-3-yl)-1-oxoisoindolin-5-yl)hex-5-yn-1-yl)piperazin-1-yl)piperidin-1-yl)-4-methoxyphenyl)but-2-ynamide], the GI50 was 57.3 nM.

Regarding `COc1cc(N2CCC(N3CCN(CCCC#Cc4cccc5c4CN(C4CCC(=O)NC4=O)C5=O)CC3)CC2)c(NC(=O)/C=C/C(F)(F)F)cc1Nc1ncc(Br)c(Nc2ccccc2P(C)(C)=O)n1` (stereo not shown) [Compound D603, (E)-N-(5-((5-bromo-4-((2-(dimethylphosphoryl)phenyl)amino)pyrimidin-2-yl)amino)-2-(4-(4-(5-(2-(2,6-dioxopiperidin-3-yl)-1-oxoisoindolin-4-yl)pent-4-yn-1-yl)piperazin-1-yl)piperidin-1-yl)-4-methoxyphenyl)-4,4,4-trifluorobut-2-enamide], the GI50 is 37.1 nM.

With `CC#CC(=O)Nc1cc(Nc2ncc(Br)c(Nc3ccccc3P(C)(C)=O)n2)c(OC)cc1N1CCC(N2CCN(CCCC#Cc3cccc4c3CN(C3CCC(=O)NC3=O)C4=O)CC2)CC1` (stereo not shown) [Compound D604, N-(5-((5-bromo-4-((2-(dimethylphosphoryl)phenyl)amino)pyrimidin-2-yl)amino)-2-(4-(4-(5-(2-(2,6-dioxopiperidin-3-yl)-1-oxoisoindolin-4-yl)pent-4-yn-1-yl)piperazin-1-yl)piperidin-1-yl)-4-methoxyphenyl)but-2-ynamide], the GI50 came to 44.4 nM.

With `COc1cc(N2CCC(N3CCN(CCCCC#Cc4cccc5c4CN(C4CCC(=O)NC4=O)C5=O)CC3)CC2)c(NC(=O)/C=C/C(F)(F)F)cc1Nc1ncc(Cl)c(Nc2ccccc2P(C)(C)=O)n1` (stereo not shown) [Compound D620, N-(5-((5-chloro-4-((2-(dimethylphosphoryl)phenyl)amino)pyrimidin-2-yl)amino)-2-(4-(4-(6-(2-(2,6-dioxopiperidin-3-yl)-1-oxoisoindolin-4-yl)hex-5-yn-1-yl)piperazin-1-yl)piperidin-1-yl)-4-methoxyphenyl)-4,4,4-trifluorobut-2-enamide], the GI50 was found to be 46.7 nM.

In the case of `COc1cc(N2CCC(N3CCN(CCCC#Cc4ccc5c(c4)CN(C4CCC(=O)NC4=O)C5=O)CC3)CC2)c(NC(=O)/C=C/C(F)(F)F)cc1Nc1ncc(Cl)c(Nc2ccccc2P(C)(C)=O)n1` (stereo not shown) [Compound D622, N-(5-((5-chloro-4-((2-(dimethylphosphoryl)phenyl)amino)pyrimidin-2-yl)amino)-2-(4-(4-(5-(2-(2,6-dioxopiperidin-3-yl)-1-oxoisoindolin-5-yl)pent-4-yn-1-yl)piperazin-1-yl)piperidin-1-yl)-4-methoxyphenyl)-4,4,4-trifluorobut-2-enamide], the GI50 came out at 258 nM.

For `COc1cc(N2CCC(N3CCN(CCCCC#Cc4ccc5c(c4)CN(C4CCC(=O)NC4=O)C5=O)CC3)CC2)c(NC(=O)/C=C/C(F)(F)F)cc1Nc1ncc(Cl)c(Nc2ccccc2P(C)(C)=O)n1` (stereo not shown) [Compound D623, N-(5-((5-chloro-4-((2-(dimethylphosphoryl)phenyl)amino)pyrimidin-2-yl)amino)-2-(4-(4-(6-(2-(2,6-dioxopiperidin-3-yl)-1-oxoisoindolin-5-yl)hex-5-yn-1-yl)piperazin-1-yl)piperidin-1-yl)-4-methoxyphenyl)-4,4,4-trifluorobut-2-enamide], the GI50 was found to be 94.3 nM.

In the case of `COc1cc(N2CCC(N3CCN(CCCC#Cc4cccc5c4CN(C4CCC(=O)NC4=O)C5=O)CC3)CC2)c(NC(=O)C#CCO)cc1Nc1ncc(Cl)c(Nc2ccccc2P(C)(C)=O)n1` (stereo not shown) [Compound D628, N-(5-((5-chloro-4-((2-(dimethylphosphoryl)phenyl)amino)pyrimidin-2-yl)amino)-2-(4-(4-(5-(2-(2,6-dioxopiperidin-3-yl)-1-oxoisoindolin-4-yl)pent-4-yn-1-yl)piperazin-1-yl)piperidin-1-yl)-4-methoxyphenyl)-4-hydroxybut-2-ynamide], the GI50 came to 325 nM.

In the case of `CCCC#CC(=O)Nc1cc(Nc2ncc(Cl)c(Nc3ccccc3P(C)(C)=O)n2)c(OC)cc1N1CCC(N2CCN(CCCC#Cc3cccc4c3CN(C3CCC(=O)NC3=O)C4=O)CC2)CC1` (stereo not shown) [Compound D631, N-(5-((5-chloro-4-((2-(dimethylphosphoryl)phenyl)amino)pyrimidin-2-yl)amino)-2-(4-(4-(5-(2-(2,6-dioxopiperidin-3-yl)-1-oxoisoindolin-4-yl)pent-4-yn-1-yl)piperazin-1-yl)piperidin-1-yl)-4-methoxyphenyl)hex-2-ynamide], the GI50 turned out to be 48.1 nM.

Turning to `COc1cc(N2CCC(N3CCN(CCCC#Cc4cccc5c4CN(C4CCC(=O)NC4=O)C5=O)CC3)CC2)c(NC(=O)C=C(C)C)cc1Nc1ncc(Cl)c(Nc2ccccc2P(C)(C)=O)n1` (stereo not shown) [Compound D633, N-(5-((5-chloro-4-((2-(dimethylphosphoryl)phenyl)amino)pyrimidin-2-yl)amino)-2-(4-(4-(5-(2-(2,6-dioxopiperidin-3-yl)-1-oxoisoindolin-4-yl)pent-4-yn-1-yl)piperazin-1-yl)piperidin-1-yl)-4-methoxyphenyl)-3-methylbut-2-enamide], the GI50 was 56.5 nM.

For the compound `CC#CC(=O)Nc1cc(Nc2ncc(Cl)c(Nc3ccccc3P(C)(C)=O)n2)ccc1N1CCC(N2CCN(CCCC#Cc3cccc4c3CN(C3CCC(=O)NC3=O)C4=O)CC2)CC1` (stereo not shown) [Compound D665, N-(5-((5-chloro-4-((2-(dimethylphosphoryl)phenyl)amino)pyrimidin-2-yl)amino)-2-(4-(4-(5-(2-(2,6-dioxopiperidin-3-yl)-1-oxoisoindolin-4-yl)pent-4-yn-1-yl)piperazin-1-yl)piperidin-1-yl)phenyl)but-2-ynamide], the GI50 stood at 10.3 nM.

In the case of `C=C(F)C(=O)Nc1cc(Nc2ncc(Cl)c(Nc3ccccc3P(C)(C)=O)n2)ccc1N1CCC(N2CCN(CCCC#Cc3cccc4c3CN(C3CCC(=O)NC3=O)C4=O)CC2)CC1` (stereo not shown) [Compound D666, N-(5-((5-chloro-4-((2-(dimethylphosphoryl)phenyl)amino)pyrimidin-2-yl)amino)-2-(4-(4-(5-(2-(2,6-dioxopiperidin-3-yl)-1-oxoisoindolin-4-yl)pent-4-yn-1-yl)piperazin-1-yl)piperidin-1-yl)phenyl)-2-fluoroacrylamide], the GI50 was 13.7 nM.
